In US10052415B2, “Tropoelastin for promoting endothelial cell adhesion or migration” (University of Utah Research Foundation, priority 2005, dated 2018):
Ends that are not written are not given here.

Assays:
Type in all cases: cell-based
[1] = test system: A2058 human melanoma cells; assay: Boyden chamber migration assay, A2058 cells; details: FIG. 5
Description: Briefly, 16 h before the assay, 70% confluent 75 cm^2 flasks of human melanoma A2058 cell (ATCC, passage 3-12) or human aortic endothelial cells (HAEC; Cambrex, passage 4-7) were kept in basal media (dMEM+0.1% BSA, or EBM-2+1% FCS, respectively). Cells were lifted with 0.25% Trypsin/1 mM EDTA, diluted in 0.5% BSA (dMEM) and washed 3 times in basal media (dMEM+0.1% BSA) or (EBM-2+0.1% FCS,) and recovered in suspension at working density (2×10^6/ml for A2058 or 1.5×10^6 HAEC) for 1 h at 37° C. (5% CO2). For migration-inhibition assays, the cells were preincubated during the recovery period for 30 minutes in 25 μg/ml anti-integrin antibodies (Chemicon, Temecula, Calif.) or control IgG (Jackson ImmunoResearch, Inc.). All migration assays were performed in triplicate in a 48-well Boyden chamber apparatus (NeuroProbe, Cabin John, Md.). The recovered cells were added to the bottom chambers in a volume of 30 μl. The wells were overlayed with an 8 μm-pore polycarbonate membrane (NeuroProbe, Cabin John, Md.) and coated with 100 μg/ml Rat tail collagen (Trevigen, Gaithersburg, Md.) for A2058 cells or acetylated 1% gelatin from porcine skin (Sigma, St. Louis, Mo.) for HAEC. The apparatus was assembled and stored inverted at 37° C. (5 CO2) for a 2 h adhesion-period. […] Readings represent the number of cells migrating through the membrane (the sum of two high power X 20 fields/well, averaged for each sextuplicate-well set).

[2] = test system: human aortic endothelial cells (HuAEC); assay: Boyden chamber migration assay, HuAEC; details: FIG. 3; for migration of HuAECs: 200 ng/ml Tropoelastin, 10 μM peptides, BSA control
Description: Migration of HuAECs to BSA, fibronectin, and recombinant tropoelastin was measured.
We assayed the hexamer VGVAPG (SEQ ID No. 5). This hexameric sequence is repeated multiple times within the full length tropoelastin protein. […] We additionally assayed a 17 residue C-terminal fragment of the tropoelastin protein. This 17 amino acid residue is depicted in SEQ ID NO: 6 (IFPGGACLGKACGRKRK).
Briefly, 16 h before the assay, 70% confluent 75 cm^2 flasks of human melanoma A2058 cell (ATCC, passage 3-12) or human aortic endothelial cells (HAEC; Cambrex, passage 4-7) were kept in basal media (dMEM+0.1% BSA, or EBM-2+1% FCS, respectively). Cells were lifted with 0.25% Trypsin/1 mM EDTA, diluted in 0.5% BSA (dMEM) and washed 3 times in basal media (dMEM+0.1% BSA) or (EBM-2+0.1% FCS,) and recovered in suspension at working density (2×10^6/ml for A2058 or 1.5×10^6 HAEC) for 1 h at 37° C. (5% CO2). For migration-inhibition assays, the cells were preincubated during the recovery period for 30 minutes in 25 μg/ml anti-integrin antibodies (Chemicon, Temecula, Calif.) or control IgG (Jackson ImmunoResearch, Inc.). All migration assays were performed in triplicate in a 48-well Boyden chamber apparatus (NeuroProbe, Cabin John, Md.). The recovered cells were added to the bottom chambers in a volume of 30 μl. The wells were overlayed with an 8 μm-pore polycarbonate membrane (NeuroProbe, Cabin John, Md.) and coated with 100 μg/ml Rat tail collagen (Trevigen, Gaithersburg, Md.) for A2058 cells or acetylated 1% gelatin from porcine skin (Sigma, St. Louis, Mo.) for HAEC. The apparatus was assembled and stored inverted at 37° C. (5 CO2) for a 2 h adhesion-period. The apparatus was re-inverted and 52 μl of the chemoattractants, 10 mg/ml Fibronectin, 200 ng/ml Tropoelastin, 10 μM elastin-derived peptides; VGVAPG (SEQ ID No. 5), and IFPGGACLGKACGRKRK (SEQ ID No. 6 (Cterm peptide) or 0.1% BSA/dMEM (diluent, random migration control), were added to the upper chambers and the migration was allowed to proceed for 2 h in a humidified incubator at 37° C. (5% CO2). The membranes were then removed, fixed in methanol, stained with a Hema 3 stain set (Fisher Scientific, Pittsburgh, Pa.) and mounted migrated-side down to a 50×75 mm glass slide. Before 90% mounting medium (in xylenes) was applied, the non-migrated cells were removed from the exposed, non-migrated face of the membrane with a moistened swab. Readings represent the number of cells migrating through the membrane (the sum of two high power X 20 fields/well, averaged for each sextuplicate-well set).

[3] = test system: A2058 human melanoma cells; assay: Cell adhesion assay, A2058 cells; details: for adhesion of A2058 cells in comparison to BSA: FIG. 4, coated substrates, peptide 10 μM
Description: A2058 cells were assayed for adherence to substrates coated with BSA (control), fibronectin, tropoelastin, or a bioactive fragment of tropoelastin corresponding to a single repeat of the hexameric sequence VGVAPG (SEQ ID No. 5). In comparison to adherence to BSA, A2058 cells adhered to substrates coated with fibronectin tropoelastin, or a bioactive fragment of tropoelastin.
(§1) Cells were harvested with 0.25% trypsin/1 mM EDTA, washed three times in adhesion buffer (0.5% BSA in basal medium), suspended at a working density of 5×10^5/ml in adhesion buffer, and then allowed to recover for 1 h at 37° C. (5% CO2). For integrin-blocking assays, 25 μg/ml anti-integrin antibodies (Chemicon, Temecula, Calif.) or control IgG (Jackson ImmunoResearch Laboratories, Inc, West Grove, Pa.) were added to the cell suspension during the recovery period. During the cell recovery, the coated 96-well plates were washed twice in dPBS and blocked for 1 h at 25° C. in 5.0% BSA (dPBS). The blocking solution was removed, and the wells were washed twice in dPBS. Recovered cells were added to the coated wells in a volume of 100 μl per well and placed at 37° C. for 30 minutes (5% CO2). Following this incubation, the assay plate was inverted and assay wells were washed twice with 100 μl dPBS to remove non-specifically adhered cells. The wells were then fixed in Zamboni fixative, stained with Gill 1 hematoxylin, and overlayed with 80% glycerol. The assay was imaged at 100× magnification, capturing 3 random fields/well on a Zeiss Axiovert 200 inverted microscope equipped with a Zeiss Axiocam digital camera. Readings represent the number of adherent cells/well (average six high powered 100× fields, three taken from each of two separate wells).

[4] = test system: human aortic endothelial cells (HuAEC); assay: Cell adhesion assay on coated culture plates, HuAEC; details: culture plates coated with 10 ug/ml protein; 0.1% BSA control
Description: (§2) Cells were plated on culture plates coated with either 0.1% BSA (as a control), 10 ug/ml fibronectin (FN), or 10 ug/ml recombinant tropoelastin, and assayed for adherence to the coated substrate.
as §1, with “96-well plates were coated in duplicate overnight at 4° C. with 10 μg/ml collagen, fibronectin, tropoelastin, or 0.1% bovine serum albumin (BSA). Cells” for “Cells”

[5] = test system: human aortic smooth muscle cells (HuAoSMC); assay: Cell adhesion assay on coated culture plates, HuAoSMC; details: culture plates coated with 10 ug/ml protein; 0.1% BSA control
Description: as §2
as §1, with “96-well plates were coated in duplicate overnight at 4° C. with 10 μg/ml collagen, fibronectin, tropoelastin, or 0.1% bovine serum albumin (BSA). Cells” for “Cells”, “Following this incubation, the assay plate was inverted and assay wells were washed twice with 100 μl dPBS to remove non-specifically adhered cells. The wells were then fixed in Zamboni fixative, stained with Gill 1 hematoxylin, and overlayed with 80% glycerol. The assay was imaged at 100× magnification, capturing 3 random fields/well on a Zeiss Axiovert 200 inverted microscope equipped with a Zeiss Axiocam digital camera.” left out

[6] = test system: human embryonic kidney cells (HEK 293); assay: Cell adhesion assay on coated culture plates, HEK 293 cells; details: culture plates coated with 10 ug/ml protein; 0.1% BSA control
Description: as §2
as §1, with “96-well plates were coated in duplicate overnight at 4° C. with 10 μg/ml collagen, fibronectin, tropoelastin, or 0.1% bovine serum albumin (BSA). Cells” for “Cells”, “Following this incubation, the assay plate was inverted and assay wells were washed twice with 100 μl dPBS to remove non-specifically adhered cells. The wells were then fixed in Zamboni fixative, stained with Gill 1 hematoxylin, and overlayed with 80% glycerol. The assay was imaged at 100× magnification, capturing 3 random fields/well on a Zeiss Axiovert 200 inverted microscope equipped with a Zeiss Axiocam digital camera.” left out

CHO cells = assay: Cell adhesion assay on coated culture plates, CHO cells; details: culture plates coated with 10 ug/ml protein; 0.1% BSA control
Description: as §2
as §1, with “96-well plates were coated in duplicate overnight at 4° C. with 10 μg/ml collagen, fibronectin, tropoelastin, or 0.1% bovine serum albumin (BSA). Cells” for “Cells”, “Following this incubation, the assay plate was inverted and assay wells were washed twice with 100 μl dPBS to remove non-specifically adhered cells. The wells were then fixed in Zamboni fixative, stained with Gill 1 hematoxylin, and overlayed with 80% glycerol. The assay was imaged at 100× magnification, capturing 3 random fields/well on a Zeiss Axiovert 200 inverted microscope equipped with a Zeiss Axiocam digital camera.” left out

IFPGGACLGKACGRKRK (chemically synthesized bioactive fragment of tropoelastin) [C-terminal fragment]
level of A2058 migration compared among tropoelastin and fragments [1]: promoted migration of A2058 cell at comparable levels
level of HuAEC migration relative to comparator [2]: at least as well as, and possibly better than, the fall length tropoelastin protein
migration of HuAECs [2]: promoted migration of endothelial cells

VGVAPG
level of A2058 adhesion relative to full length tropoelastin ([3]; 10 μM of a single repeat of the hexameric sequence): at a level similar to 10 μg/ml of full length tropoelastin
adhesion of A2058 cells in comparison to BSA [3]: promoted adhesion of A2058 cells
level of A2058 migration compared among tropoelastin and fragments [1]: promoted migration of A2058 cell at comparable levels
level of HuAEC migration relative to comparator [2]: at least as well as, and possibly better than, the fall length tropoelastin protein
migration of HuAECs [2]: promoted migration of endothelial cells

fibronectin [reference compound]
adhesion of HuAEC to the coated substrate [4]: adhered to fibronectin
adhesion of A2058 cells in comparison to BSA [3]: adhered
adhesion of HuAoSMC to the coated substrate [5]: adhered to fibronectin
adhesion of HEK 293 cells to the coated substrate [6]: adhered to fibronectin
adhesion of CHO cells to the coated substrate (CHO cells): adhered to fibronectin
